Laboratory results: paper PMC2819003 (Angewandte Chemie (International ed. in English), 2010)

Biological target: T1, DPPS; decaprenyl diphosphate synthase (Homo sapiens, UniProt Q5T2R2)
T1 sequence (Q5T2R2 1-415): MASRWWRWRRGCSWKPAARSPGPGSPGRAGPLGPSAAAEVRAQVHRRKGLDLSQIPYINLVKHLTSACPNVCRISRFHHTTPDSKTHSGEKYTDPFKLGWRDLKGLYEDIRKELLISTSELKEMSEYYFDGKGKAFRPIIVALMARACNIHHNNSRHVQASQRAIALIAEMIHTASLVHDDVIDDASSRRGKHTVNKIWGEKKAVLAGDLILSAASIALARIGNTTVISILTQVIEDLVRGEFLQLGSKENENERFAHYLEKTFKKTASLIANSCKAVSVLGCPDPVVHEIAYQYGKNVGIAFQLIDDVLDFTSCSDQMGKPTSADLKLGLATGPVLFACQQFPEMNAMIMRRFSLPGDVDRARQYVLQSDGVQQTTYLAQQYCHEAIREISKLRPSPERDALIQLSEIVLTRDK
T1 sequence (Q86YH6 1-399 partner): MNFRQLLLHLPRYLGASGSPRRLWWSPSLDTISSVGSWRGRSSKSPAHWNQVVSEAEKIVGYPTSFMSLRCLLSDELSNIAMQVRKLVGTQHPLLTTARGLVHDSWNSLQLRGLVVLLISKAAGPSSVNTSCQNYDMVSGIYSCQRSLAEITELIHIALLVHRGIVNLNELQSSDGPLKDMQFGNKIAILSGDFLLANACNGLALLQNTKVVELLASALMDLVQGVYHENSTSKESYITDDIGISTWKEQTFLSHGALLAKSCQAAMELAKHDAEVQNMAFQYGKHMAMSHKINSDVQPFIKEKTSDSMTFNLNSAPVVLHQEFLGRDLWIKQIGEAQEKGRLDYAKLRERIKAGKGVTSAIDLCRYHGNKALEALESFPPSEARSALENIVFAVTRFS
Test: DPPS inhibition assay
Assay type: biochemical

IC50: 5.5 µM
Compound: O=P(O)(O)C(O)(Cn1ccnc1)P(=O)(O)O [zoledronate]
